Results as given in patent publication US20070286888A1, “Additive For Feeds And Feed Containing The Same” (Kabushiki Kaisha Yakult Honsha, priority 2004, published 2007).

Columns and labels:
[1] = test system: L. reuteri YIT0480 strain; experiment: Antibiotic resistance test, L. reuteri; format: cell-based, Lactobacillus reuteri
Description: (§1) The 11 antibiotics shown in Table 3 were separately added at concentrations of 100, 10, 1, 0.1, and 0 μg/ml, to thereby prepare MRS agar mediums (manufactured by Difco). Subsequently, cell culture solutions of the five bacterial stains (A) and (B) obtained in Production Example 1 (10 μl each) were separately inoculated into the respective antibiotic-containing MRS mediums (the cell number of each bacterial strain: about 1·10^8 cells/ml), followed by smear culture at 37° C. for 48 hours under anaerobic conditions. The proliferated bacteria were evaluated with the naked eye, and the […] for each antibiotic (μg/ml) were calculated.

L. equi YIT0483 strain = experiment: Antibiotic resistance test, L. equi; format: cell-based, Lactobacillus equi
Description: as §1

[2] = test system: five Lactobacillus bacterial stains (A) and (B); experiment: Antibiotic resistance test, all five strains; format: cell-based
Description: as §1

[3] = test system: L. johnsonii YIT0482 strain; experiment: Antibiotic resistance test, L. johnsonii; format: cell-based, Lactobacillus johnsonii
Description: as §1

[4] = test system: horse gastric mucosal epithelial cell; experiment: Cell adhesion test to horse gastric mucosal epithelial cell; format: cell-based; conditions: for Adhesion of bacteria to horse gastric mucosal epithelial cell: cells adhered to one gastric mucosal epithelial cell, 37° C., Giemsa stain
Description: Meanwhile, gastric mucosal epithelial tissue pieces (1 cm^2) taken from a horse were added to 3 ml (the cell number of each bacterial strain: about 3·10^8 cells/ml) of cell culture solutions of the five bacterial stains (A) and (B) obtained in Production Example 1 above, followed by culture with shaking at 37° C. Then, the gastric mucosal epithelial tissue pieces were washed with a buffer (composition: 0.8% NaCl; 0.121% K2HPO4; 0.034% KH2PO4; pH 7.2) several times, and the gastricmucosal epithelial cells were scraped off from the gastric mucosal epithelial tissue pieces under a stereomicroscope, followed by Giemsa stain. The resultant cells were used to count the number of cells of each bacterial strain that adhered to one gastric mucosal epithelial cell under a microscope, and the adhesion was evaluated.

[5] = Proliferative activity test in skim milk media; format: cell-based; parameters: key to Proliferative activity 24 hours later SM / Proliferative activity 24 hours later YE / Proliferative activity 24 hours later P / Proliferative activity 24 hours later YP / Proliferative activity 48 hours later SM / Proliferative activity 48 hours later YE / Proliferative activity 48 hours later P / Proliferative activity 48 hours later YP: ∘: completely solidified culture solution due to proliferated cells; Δ: semifluid culture solution with slightly proliferated cells; x: liquid culture solution with unproliferated cells; conditions: for Proliferative activity 24 hours later P / Proliferative activity 48 hours later P: 0.1% peptone +10% skim milk; for Proliferative activity 24 hours later P / Proliferative activity 48 hours later P / Proliferative activity 24 hours later YP / Proliferative activity 48 hours later YP / Proliferative activity 24 hours later YE / Proliferative activity 48 hours later YE / Proliferative activity 24 hours later SM / Proliferative activity 48 hours later SM: 37° C.; for Proliferative activity 24 hours later YP / Proliferative activity 48 hours later YP: 0.1% yeast extract +0.1% peptone +10% skim milk; for Proliferative activity 24 hours later YE / Proliferative activity 48 hours later YE: 0.1% yeast extract +10% skim milk; for Proliferative activity 24 hours later SM / Proliferative activity 48 hours later SM: 10% skim milk
Description: Four mediums, i.e., 10% skim milk (SM), 0.1% yeast extract (manufactured by Difco) +10% skim milk (YE), 0.1% peptone (manufactured by Difco) +10% skimmilk (P), and 0.1% yeast extract (manufactured by Difco) +0.1% peptone (manufactured by Difco) +10% skimmilk (YP) were subjected to high-pressure heat sterilization at 115° C. for 15 minutes, and then cell culture solutions of the five bacterial stains (A) and (B) obtained in Production Example 1 above (30 μl each) were separately inoculated into 3 ml of the respective mediums (the cell number of each bacterial strain: about 3·10^8 cells/ml), followed by culture at 37° C. for 24 hours and 48 hours. For proliferative activity tests, the culture solutions were evaluated based on the following criteria: completely solidified culture solution due to proliferated cells: “∘”; semifluid culture solution with slightly proliferated cells: “Δ”; and liquid culture solution with unproliferated cells: “x”.

[6] = Proliferative Activity Test 2 in presence of gentamicin; format: cell-based; parameters: key: ∘: fully proliferated; Δ: slightly proliferated; x: unproliferated; conditions: MRS agar, 37° C., 48 hours, anaerobic
Description: (§2) Meanwhile, the proliferative activity test in the presence of an antibiotic was performed using cell culture solutions containing (A) L. equi YIT0483 strain and (B) at least one selected from the four Lactobacillus strains in combination.
(§3) MRS agar mediums (manufactured by Difco) to which gentamicin was added as an antibiotic at concentrations of 100, 50, 20, and 0 μg/ml were prepared. Subsequently, a cell culture solution of only (A) L. equi strain and a mixed cell culture solution of (A) L. equi strain and (B) L. johnsonii strain (10 μl each) were separately inoculated into the respective antibiotic-containing MRS mediums (the cell number of each bacterial strain: about 1·10^6 cells/ml), followed by smear culture at 37° C. for 48 hours under anaerobic conditions. Then, the proliferative activities of the bacteria were evaluated with the naked eye.

[7] = Proliferative Activity Test 1 in presence of oxytetracycline hydrochloride; format: cell-based; parameters: key: ∘: fully proliferated; Δ: slightly proliferated; x: unproliferated; conditions: MRS agar, 37° C., 48 hours, anaerobic
Description: as §2
as §3, with “oxytetracycline hydrochloride” for “gentamicin”, “10, 5, 2,” for “100, 50, 20,”, “µg/ml” for “μg/ml”, “reuteri” for “johnsonii”

[8] = Proliferative Activity Test 3 in presence of ofloxacin; format: cell-based; parameters: key: ∘: fully proliferated; Δ: slightly proliferated; x: unproliferated; conditions: MRS agar, 37° C., 48 hours, anaerobic
Description: as §2
as §3, with “ofloxacin” for “gentamicin”, “johnsonii strain or L. equi strain and L. crispatus” for “johnsonii”

Molecule	Adhesion of bacteria to horse gastric mucosal epithelial cell [4]	Proliferative activity 24 hours later P [5]	Proliferative activity 48 hours later P [5]	Proliferative activity 24 hours later YP [5]	Proliferative activity 48 hours later YP [5]	Proliferative activity 24 hours later YE [5]	Proliferative activity 48 hours later YE [5]	Proliferative activity 24 hours later SM [5]	Proliferative activity 48 hours later SM [5]	other results
CC1(C)S[C@@H]2[C@H](NC(=O)[C@H](N)c3ccccc3)C(=O)N2[C@H]1C(=O)O [Ampicillin]	–	–	–	–	–	–	–	–	–	Resistance of the strain to the antibiotic (in words) [1]: particularly excellent resistance
CC1(C)S[C@@H]2[C@H](NC(=O)Cc3ccccc3)C(=O)N2[C@H]1C(=O)O [Benzylpenicillin]	–	–	–	–	–	–	–	–	–	Resistance of the strain to the antibiotic (in words) [1]: stronger resistance
CC(=O)OCC1=C(C(=O)O)N2C(=O)[C@@H](NC(=O)Cc3cccs3)[C@H]2SC1 [Cefalotin sodium]	–	–	–	–	–	–	–	–	–	Resistance of the strain to the antibiotic (in words) [1]: particularly excellent resistance
CO/N=C(\C(=O)N[C@@H]1C(=O)N2C(C(=O)O)=C(CSc3nc(=O)c(=O)[nH]n3C)CS[C@H]12)c1csc(N)n1 [Ceftriaxone sodium]	–	–	–	–	–	–	–	–	–	Resistance of the strain to the antibiotic (in words) (L. equi YIT0483 strain): excellent specific resistance
CN[C@@H]1[C@H](O[C@H]2[C@H](O[C@H]3[C@H](O)[C@@H](O)[C@H](NC(=N)N)[C@@H](O)[C@@H]3NC(=N)N)O[C@@H](C)[C@]2(O)CO)O[C@@H](CO)[C@H](O)[C@H]1O [Dihydrostreptomycin]	–	–	–	–	–	–	–	–	–	Resistance of the strains to the antibiotic (in words) [2]: excellent resistance
COc1cc(NS(=O)(=O)c2ccc(N)cc2)ncn1 [Sulfamonomethoxine]	–	–	–	–	–	–	–	–	–	Resistance of the strains to the antibiotic (in words) [2]: excellent resistance
Bactramin	–	–	–	–	–	–	–	–	–	Resistance of the strains to the antibiotic (in words) [2]: excellent resistance
Gentamicin	–	–	–	–	–	–	–	–	–	Resistance of the strain to the antibiotic (in words) [3]: excellent specific resistance
Lactobacillus crispatus YIT0481 strain [(B) L. crispatus YIT0481 strain]	+ (1-9 cells adhered to one gastric mucosal epithelial cell)	∘	∘	∘	∘	∘	∘	x	∘	–
Lactobacillus equi YIT0483 strain [(A) L. equi YIT0483 strain]	++ (10-99 cells adhered to one gastric mucosal epithelial cell)	∘	∘	∘	∘	∘	∘	∘	∘	Proliferative activity, Genatmicin 0 μg/ml ([6]; gentamicin 0 μg/ml): ∘; Proliferative activity, Genatmicin 20 μg/ml ([6]; gentamicin 20 μg/ml): Δ; Proliferative activity, Genatmicin 50 μg/ml ([6]; gentamicin 50 μg/ml): x; Proliferative activity, Genatmicin 100 μg/ml ([6]; gentamicin 100 μg/ml): x; Proliferative activity, Oxytetracycline 0 μg/ml ([7]; oxytetracycline 0 μg/ml): ∘; Proliferative activity, Oxytetracycline 2 μg/ml ([7]; oxytetracycline 2 μg/ml): x; Proliferative activity, Oxytetracycline 5 μg/ml ([7]; oxytetracycline 5 μg/ml): x; Proliferative activity, Oxytetracycline 10 μg/ml ([7]; oxytetracycline 10 μg/ml): x; Proliferative activity, Ofloxacin 0 μg/ml ([8]; ofloxacin 0 μg/ml): ∘; Proliferative activity, Ofloxacin 20 μg/ml ([8]; ofloxacin 20 μg/ml): x; Proliferative activity, Ofloxacin 50 μg/ml ([8]; ofloxacin 50 μg/ml): x; Proliferative activity, Ofloxacin 100 μg/ml ([8]; ofloxacin 100 μg/ml): x; Adhesion to horse gastric mucosal epithelial cells (in words) [4]: excellent; Proliferative activity (in words) ([5]; under the respective medium conditions): excellent proliferative activity
Lactobacillus johnsonii YIT0482 strain [(B) L. johnsonii YIT0482 strain]	+ (1-9 cells adhered to one gastric mucosal epithelial cell)	∘	∘	∘	∘	∘	∘	x	x	–
Lactobacillus reuteri YIT0480 strain [(B) L. reuteri YIT0480 strain]	+ (1-9 cells adhered to one gastric mucosal epithelial cell)	∘	∘	∘	∘	∘	∘	x	x	–
Lactobacillus salivarius YIT0479 strain [(B) L. salivarius YIT0479 strain]	++ (10-99 cells adhered to one gastric mucosal epithelial cell)	∘	∘	∘	∘	∘	∘	x	∘	–
